Activity calls are given as the source filed them. The rule behind the calls is not given here.
Test system: CCRIS mutagenicity, Ames/micronucleus/aberration tests
Experiment: CCRIS mutagenicity studies
[1] = Test System: AMES SALMONELLA TYPHIMURIUM, Strain/Indicator: TA98, Metabolic Activation: NONE, Method: STANDARD PLATE
[2] = Test System: AMES SALMONELLA TYPHIMURIUM, Strain/Indicator: TA98, Metabolic Activation: RAT, LIVER, S-9, AROCLOR 1254, Method: STANDARD PLATE
[3] = Test System: AMES SALMONELLA TYPHIMURIUM, Strain/Indicator: TA100, Metabolic Activation: NONE, Method: STANDARD PLATE
[4] = Test System: AMES SALMONELLA TYPHIMURIUM, Strain/Indicator: TA100, Metabolic Activation: RAT, LIVER, S-9, AROCLOR 1254, Method: STANDARD PLATE
[5] = Test System: AMES SALMONELLA TYPHIMURIUM, Strain/Indicator: TA102, Metabolic Activation: NONE, Method: STANDARD PLATE
[6] = Test System: AMES SALMONELLA TYPHIMURIUM, Strain/Indicator: TA1535, Metabolic Activation: NONE, Method: STANDARD PLATE
[7] = Test System: AMES SALMONELLA TYPHIMURIUM, Strain/Indicator: TA1537, Metabolic Activation: NONE, Method: STANDARD PLATE
[8] = Test System: AMES SALMONELLA TYPHIMURIUM, Strain/Indicator: TA1538, Metabolic Activation: NONE, Method: STANDARD PLATE
[9] = Test System: AMES SALMONELLA TYPHIMURIUM, Strain/Indicator: TA100, Metabolic Activation: S-9, Method: STANDARD PLATE
[10] = Test System: AMES SALMONELLA TYPHIMURIUM, Strain/Indicator: TA98, Metabolic Activation: RAT, LIVER, S-9, PHENOBARBITAL, Method: STANDARD PLATE
[11] = Test System: AMES SALMONELLA TYPHIMURIUM, Strain/Indicator: TA102, Metabolic Activation: RAT, LIVER, S-9, PHENOBARBITAL, Method: STANDARD PLATE
[12] = Test System: AMES SALMONELLA TYPHIMURIUM, Strain/Indicator: TA1535, Metabolic Activation: RAT, LIVER, S-9, PHENOBARBITAL, Method: STANDARD PLATE
[13] = Test System: AMES SALMONELLA TYPHIMURIUM, Strain/Indicator: TA1537, Metabolic Activation: RAT, LIVER, S-9, PHENOBARBITAL, Method: STANDARD PLATE

O=C(O)COc1ccc(Cl)cc1
mutagenic call (Test System: AMES SALMONELLA TYPHIMURIUM, Strain/Indicator: TA97, Metabolic Activation: NONE, Method: STANDARD PLATE): inactive; negative | mutagenic call (Test System: AMES SALMONELLA TYPHIMURIUM, Strain/Indicator: TA97, Metabolic Activation: RAT, LIVER, S-9, AROCLOR 1254, Method: STANDARD PLATE): inactive; negative | mutagenic call [1]: inactive; negative | mutagenic call [2]: inactive; negative | mutagenic call [3]: inactive; negative | mutagenic call [4]: inactive; negative | mutagenic call [5]: inactive; negative | mutagenic call (Test System: AMES SALMONELLA TYPHIMURIUM, Strain/Indicator: TA102, Metabolic Activation: RAT, LIVER, S-9, AROCLOR 1254, Method: STANDARD PLATE): inactive; negative

Cc1cc(NS(=O)(=O)c2ccc(N)cc2)no1
mutagenic call (End Point: AMES SALMONELLA TYPHIMURIUM, Test System: TA98, Metabolic Activation: NONE, Method: STANDARD PLATE): active; positive | mutagenic call (End Point: AMES SALMONELLA TYPHIMURIUM, Test System: TA100, Metabolic Activation: NONE, Method: STANDARD PLATE): active; positive

Cn1c(N)nc2c3ccncc3ccc21
mutagenic call [2]: active; positive

Nc1c(O)cccc1[N+](=O)[O-]
mutagenic call [1]: inactive; negative | mutagenic call [2]: inactive; negative | mutagenic call [3]: inactive; negative | mutagenic call [4]: inactive; negative | mutagenic call [6]: inactive; negative | mutagenic call (Test System: AMES SALMONELLA TYPHIMURIUM, Strain/Indicator: TA1535, Metabolic Activation: RAT, LIVER, S-9, AROCLOR 1254, Method: STANDARD PLATE): inactive; negative | mutagenic call [7]: inactive; negative | mutagenic call (Test System: AMES SALMONELLA TYPHIMURIUM, Strain/Indicator: TA1537, Metabolic Activation: RAT, LIVER, S-9, AROCLOR 1254, Method: STANDARD PLATE): inactive; negative | mutagenic call [8]: inactive; negative | mutagenic call (Test System: AMES SALMONELLA TYPHIMURIUM, Strain/Indicator: TA1538, Metabolic Activation: RAT, LIVER, S-9, AROCLOR 1254, Method: STANDARD PLATE): inactive; negative

CCCCC(=O)Nc1snc2ccc(Cl)cc12
mutagenic call [3]: inactive; negative | mutagenic call [9]: inactive; negative | mutagenic call [7]: inactive; negative | mutagenic call (Test System: AMES SALMONELLA TYPHIMURIUM, Strain/Indicator: TA1537, Metabolic Activation: S-9, Method: STANDARD PLATE): inactive; negative

O=C(O)CCC(=O)Nc1cc(Cl)cc(Cl)c1
mutagenic call [1]: inactive; negative | mutagenic call [2]: inactive; negative | mutagenic call [3]: inactive; negative | mutagenic call [4]: inactive; negative

CC(C)C(=O)Nc1snc2cc(Cl)ccc12
mutagenic call [3]: inactive; negative | mutagenic call [9]: inactive; negative

O=CC(=C(Cl)Cl)C(Cl)Cl
mutagenic call [3]: active; positive

[Co]
mutagenic call (End Point: IN VITRO MICRONUCLEUS, Test System: HUMAN LYMPHOCYTES, Metabolic Activation: NONE): active; positive | mutagenic call [1]: active; positive | mutagenic call [10]: inactive; negative | mutagenic call [5]: inactive; negative | mutagenic call [11]: inactive; negative | mutagenic call [6]: inactive; negative | mutagenic call [12]: inactive; negative | mutagenic call [7]: active; positive | mutagenic call [13]: inactive; negative

CC(C)CCCCCCOC(=O)c1ccccc1C(=O)OCCCCCCC(C)C
mutagenic call [1]: inactive; negative | mutagenic call (Test System: AMES SALMONELLA TYPHIMURIUM, Strain/Indicator: TA98, Metabolic Activation: RAT LIVER S-9, AROCLOR, Method: STANDARD PLATE): inactive; negative | mutagenic call [3]: inactive; negative | mutagenic call (Test System: AMES SALMONELLA TYPHIMURIUM, Strain/Indicator: TA100, Metabolic Activation: RAT LIVER S-9, AROCLOR, Method: STANDARD PLATE): inactive; negative | mutagenic call [6]: inactive; negative | mutagenic call (Test System: AMES SALMONELLA TYPHIMURIUM, Strain/Indicator: TA1535, Metabolic Activation: RAT LIVER S-9, AROCLOR, Method: STANDARD PLATE): inactive; negative | mutagenic call [7]: inactive; negative | mutagenic call (Test System: AMES SALMONELLA TYPHIMURIUM, Strain/Indicator: TA1537, Metabolic Activation: RAT LIVER S-9, AROCLOR, Method: STANDARD PLATE): inactive; negative | mutagenic call [8]: inactive; negative | mutagenic call (Test System: AMES SALMONELLA TYPHIMURIUM, Strain/Indicator: TA1538, Metabolic Activation: RAT LIVER S-9, AROCLOR, Method: STANDARD PLATE): inactive; negative

N#CCCCCC#N
mutagenic call (Test System: AMES SALMONELLA TYPHIMURIUM, Strain/Indicator: TA97, Metabolic Activation: HAMSTER, LIVER, S-9, AROCLOR 1254 (10 OR 30%), Method: PREINCUBATION): inactive; negative | mutagenic call (Test System: AMES SALMONELLA TYPHIMURIUM, Strain/Indicator: TA97, Metabolic Activation: NONE, Method: PREINCUBATION): inactive; negative | mutagenic call (Test System: AMES SALMONELLA TYPHIMURIUM, Strain/Indicator: TA97, Metabolic Activation: RAT, LIVER, S-9, AROCLOR 1254 (10 OR 30%), Method: PREINCUBATION): inactive; negative | mutagenic call (Test System: AMES SALMONELLA TYPHIMURIUM, Strain/Indicator: TA98, Metabolic Activation: HAMSTER, LIVER, S-9, AROCLOR 1254 (10 OR 30%), Method: PREINCUBATION): inactive; negative | mutagenic call (Test System: AMES SALMONELLA TYPHIMURIUM, Strain/Indicator: TA98, Metabolic Activation: NONE, Method: PREINCUBATION): inactive; negative | mutagenic call (Test System: AMES SALMONELLA TYPHIMURIUM, Strain/Indicator: TA98, Metabolic Activation: RAT, LIVER, S-9, AROCLOR 1254 (10 OR 30%), Method: PREINCUBATION): inactive; negative | mutagenic call (Test System: AMES SALMONELLA TYPHIMURIUM, Strain/Indicator: TA100, Metabolic Activation: HAMSTER, LIVER, S-9, AROCLOR 1254 (10 OR 30%), Method: PREINCUBATION): inactive; negative | mutagenic call (Test System: AMES SALMONELLA TYPHIMURIUM, Strain/Indicator: TA100, Metabolic Activation: NONE, Method: PREINCUBATION): inactive; negative | mutagenic call (Test System: AMES SALMONELLA TYPHIMURIUM, Strain/Indicator: TA100, Metabolic Activation: RAT, LIVER, S-9, AROCLOR 1254 (10 OR 30%), Method: PREINCUBATION): inactive; negative | mutagenic call (Test System: AMES SALMONELLA TYPHIMURIUM, Strain/Indicator: TA1535, Metabolic Activation: HAMSTER, LIVER, S-9, AROCLOR 1254 (10 OR 30%), Method: PREINCUBATION): inactive; negative | mutagenic call (Test System: AMES SALMONELLA TYPHIMURIUM, Strain/Indicator: TA1535, Metabolic Activation: NONE, Method: PREINCUBATION): inactive; negative | mutagenic call (Test System: AMES SALMONELLA TYPHIMURIUM, Strain/Indicator: TA1535, Metabolic Activation: RAT, LIVER, S-9, AROCLOR 1254 (10 OR 30%), Method: PREINCUBATION): inactive; negative

C(CCC1CO1)CC1CO1 (configuration not stated)
mutagenic call (Test System: AMES SALMONELLA TYPHIMURIUM, Strain/Indicator: TA97A, Metabolic Activation: NONE, Method: STANDARD PLATE): active; positive | mutagenic call [3]: active; positive | mutagenic call [5]: active; positive | mutagenic call (Test System: AMES SALMONELLA TYPHIMURIUM, Strain/Indicator: TA102, Metabolic Activation: RAT LIVER S-9, AROCLOR 1254, Method: STANDARD PLATE): active; positive | mutagenic call [6]: active; positive | mutagenic call [7]: inactive; negative

[Cr]
mutagenic call [1]: active; positive | mutagenic call [10]: inactive; negative | mutagenic call [5]: inactive; negative | mutagenic call [11]: inactive; negative | mutagenic call [6]: active; positive | mutagenic call [12]: inactive; negative | mutagenic call [7]: inactive; negative | mutagenic call [13]: inactive; negative
